Target: T1, UGT1A4 (Homo sapiens, UniProt P22310)
T1 construct: from tissue; host or cells: human liver microsomes
T1 sequence (P22310 29-534): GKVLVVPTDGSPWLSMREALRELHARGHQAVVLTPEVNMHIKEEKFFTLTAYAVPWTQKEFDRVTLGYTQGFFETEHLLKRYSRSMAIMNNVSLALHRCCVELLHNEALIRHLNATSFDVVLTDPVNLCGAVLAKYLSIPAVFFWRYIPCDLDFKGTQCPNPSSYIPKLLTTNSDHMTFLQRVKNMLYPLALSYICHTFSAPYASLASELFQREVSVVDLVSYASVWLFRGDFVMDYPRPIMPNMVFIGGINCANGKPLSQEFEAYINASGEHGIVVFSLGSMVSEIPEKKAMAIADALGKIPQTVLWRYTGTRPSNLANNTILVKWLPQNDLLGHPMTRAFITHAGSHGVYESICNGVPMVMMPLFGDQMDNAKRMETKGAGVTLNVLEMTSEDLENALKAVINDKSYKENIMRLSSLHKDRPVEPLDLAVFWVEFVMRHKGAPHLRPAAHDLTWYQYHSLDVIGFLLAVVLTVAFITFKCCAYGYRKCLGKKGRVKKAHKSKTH
Experiment: UGT1A4 inhibition (trifluoperazine glucuronidation) in human liver microsomes, cocktail LC-MS/MS
Assay type: in vitro ADME
Protocol: The inhibitory effects of two selaginellins on the metabolism of six UGT probe substrates were evaluated using previously reported method with minor modification. In brief, HLMs (0.25 mg/mL) were activated by incubation in the presence of alamethicin (25 μg/mL) for 15 min on ice. After the addition of UGT isoform-selective substrates and selaginellins (0, 0.5, 2, 5, 20 and 50 μM) the final concentrations of organic solvent (methanol) for the cocktail incubation conditions were 1.0% (v/v). The incubation reaction mixtures were pre-incubated for 5 min. The reaction was initiated by the addition of 5 mM UDPGA and further incubated for 60 min. All reactions were terminated by adding ice-cold acetonitrile containing estrone glucuronide (IS). After mixing and centrifugation, aliquots were injected into a LC-MS/MS as described previously (Table 2). All microsomal incubations were performed in triplicate.
The IC50 values (concentration of the inhibitor causing 50% inhibition of the original enzyme activity) were calculated using WinNonlin software (Pharsight, Mountain View, CA, USA): percentage of control activity = 100 × [1 − (I/(I + IC50))], where I is the inhibitor concentration, and IC50 is the inflection point on the curve.

Row | SMILES | IC50 [µM]
1 | COc1ccc(C(=C2C=CC(=O)C=C2)c2c(-c3ccc(O)cc3)ccc(CO)c2C#Cc2ccc(O)cc2)cc1 [Selaginellin M] | 3.9
2 | O=C1C=CC(=C(c2ccc(O)cc2)c2c(-c3ccc(O)cc3)ccc(CO)c2C#Cc2ccc(O)cc2)C=C1 [Selaginellin] | 6.6

From article PMC6151550, “Inhibitory Effect of Selaginellins from Selaginella tamariscina (Beauv.) Spring against Cytochrome P450 and Uridine 5′-Diphosphoglucuronosyltransferase Isoforms on Human Liver Microsomes” (Molecules : A Journal of Synthetic Chemistry and Natural …, 2017)
